# How the values were obtained:
# PCSK9 secretion = test: SILAC mass spectrometry of HepG2 secreted proteins: PCSK9; assay type: cell-based, human; settings: HepG2, Mdivi-1 50 μM, 24 hours, vs vehicle
# Method: To assess DRP1 involvement in protein secretion, secretome changes were quantified using stable isotope labeling by amino acids in cell culture (SILAC).
# HepG2 cells were cultured on 100 mm dishes at a confluency of ˜60-70%. […] Media was prepared with DMEM (no lysine, no arginine; A14431-01, Thermo Fisher Scientific) to which L-glutamine (2 mM, Lonza, Walkersville, Md.), L-arginine HCl (0.17 mM; Sigma), either light L-lysine HCl (0.339 mM; Sigma) or heavy L-lysine 2HCl (0.339 mM; Cambridge Isotopes, Tewksbury, Mass.), 10% dialyzed FBS (Thermo Fisher Scientific), 1% pen/strep was added. Media was changed every two days, and cells were split as required. […]
# The peptide sample was diluted [1/10-fold] and analyzed with the high resolution/accuracy Q Exactive™ mass spectrometer fronted with a Nanospray™ FLEX ion source, and coupled to an Easy-nLC1000 HPLC pump (Thermo Fisher Scientific). […] The peptide false discovery rate (FDR) was calculated using Percolator™ provided by Proteome Discoverer. […] Quantification of SILAC peak pairs was also done in Proteome Discoverer™ using up to the top three most abundant peptides. […] Significant changes were determined as proteins with an average value (ratio of Mdivi-1 treated/vehicle treated peak intensity) plus two standard deviations being less than the control value (vehicle treated/vehicle treated peak intensity=1). […]
# cellular PCSK9 protein = test: Western blot, HepG2 cellular PCSK9 protein; assay type: cell-based, human; settings: HepG2, Mdivi-1 50 μM, 24 hours
# DRP1 protein = test: Western blot, HepG2 DRP1 protein; assay type: cell-based, human; settings: HepG2, Mdivi-1 50 μM, 24 hours
# hepatocyte cytoskeleton = test: Cytoskeleton gene panel and actin/microtubule confocal immunofluorescence; assay type: cell-based; settings: HepG2 and primary human hepatocytes, Mdivi-1 50 μM, 24 hours
# Method: Filamentous actin was stained using CytoPainter Phallodin iFluor 555 Reagent (2 μl phalloidin in 2000 μl PBS with 1% BSA; Abcam), with a 60 minute incubation at room temperature. Slides were incubated with anti-alpha tubulin (1:200, Abcam, ab15246), PDI (1:100; 3501, Cell Signaling Technology), and anti-mitochondria (ab92824, Abcam) for 2 hours at room temperature or overnight at 4° C., followed by incubation with Alexa Fluor 488-labelled secondary antibody (1:200, Thermo Fisher Scientific). Nuclear staining was performed with DAPI (Thermo Fisher Scientific). Prior to visualization 200 μL PBS was added to each well. Liver tissue and cells were examined using a confocal microscope Al (Nikon Instruments Inc., Melville, N.Y.), and all images were processed with Elements 3.20 software (Nikon Instruments Inc.). Human cells and mouse liver was homogenized with TriZolTM (Life Technologies, Grand Island, N.Y.) to isolate RNA. […]
# [1] = test system: diabetic apolipoprotein E-deficient mice; settings: cited from earlier work
# [2] = test system: ischemia/reperfusion injury-induced myocardial infarction; settings: mice; cited from earlier work
# naïve wild type rodents = settings: up to ten weeks after treatment, Mdivi-1 injection; cited from earlier work
compound,measurement,setting,value
"COc1cc(-n2c(S)nc3ccccc3c2=O)c(Cl)cc1Cl [Mdivi-1, 3-(2,4-Dichloro-5-methoxyphenyl)-2,3-dihydro-2-thioxo-4(1H)-quinazolinone]",PCSK9 secretion reduction (SILAC),PCSK9 secretion,−74%
same,Cellular PCSK9 protein abundance,cellular PCSK9 protein,reduced
same,DRP1 protein content,DRP1 protein,without altering
same,hepatocyte cytoskeleton,hepatocyte cytoskeleton,did not alter
same,oxidative stress and inflammation,[1],reduces
same,ischemia/reperfusion injury-induced myocardial infarction,[2],reduces
same,abnormal phenotypes or cytotoxicity,naïve wild type rodents,no abnormal phenotypes or cytotoxicity

# — patent US10960020B2, “Modulation of PCSK9 and LDLR through DRP1 inhibition” (THE BRIGHAM AND WOMEN'S HOSPITAL, INC., priority 2016, dated 2021)
